{
  "source": "paper PMC2410173",
  "about": "“Pharmacokinetics and efficacy of 2-methoxyoestradiol and 2-methoxyoestradiol-bis-sulphamate in vivo in rodents” (British Journal of Cancer, 2004)",
  "key": {"[1]": {"settings": "in vivo; cited from earlier work"}, "[2]": {"biological_target": "T1, steroid sulphatase (Rattus norvegicus, UniProt P15589)", "T1 construct": "Livers were obtained from animals administered with 2-MeOE2 or 2-MeOE2bisMATE either orally or intravenously, to assess their effects on steroid sulphatase activity; from tissue; host or cells: liver of female Wistar rats", "T1 sequence (P15589 20-577)": "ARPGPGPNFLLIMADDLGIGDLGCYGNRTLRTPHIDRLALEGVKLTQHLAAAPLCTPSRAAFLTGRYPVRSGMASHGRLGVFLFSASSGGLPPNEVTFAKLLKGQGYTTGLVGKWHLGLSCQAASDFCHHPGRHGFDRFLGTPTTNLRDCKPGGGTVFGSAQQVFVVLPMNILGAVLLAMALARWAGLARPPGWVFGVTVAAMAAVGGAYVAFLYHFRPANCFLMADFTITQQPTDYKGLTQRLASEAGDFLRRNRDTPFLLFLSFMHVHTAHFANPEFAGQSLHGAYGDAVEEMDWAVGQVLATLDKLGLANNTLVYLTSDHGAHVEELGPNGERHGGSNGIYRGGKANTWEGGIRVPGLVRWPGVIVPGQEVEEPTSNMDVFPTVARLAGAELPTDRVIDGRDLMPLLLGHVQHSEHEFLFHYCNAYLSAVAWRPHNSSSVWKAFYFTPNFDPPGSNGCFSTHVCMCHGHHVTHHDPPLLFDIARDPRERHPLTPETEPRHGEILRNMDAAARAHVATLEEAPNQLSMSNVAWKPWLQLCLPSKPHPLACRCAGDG", "parameters": "method as in Purohit et al, 1995", "settings": "single dose 10 mg kg^−1 oral or intravenous; ref Purohit et al, 1995; cited from earlier work"}, "[3]": {"biological_target": "T1, steroid sulphatase", "assay": "Liver oestrone sulphatase activity after in vivo dosing", "method": "Livers were obtained from animals administered with 2-MeOE2 or 2-MeOE2bisMATE either orally or intravenously, to assess their effects on steroid sulphatase activity. Steroid sulphatase activity was measured as described previously ([Purohit et al, 1995])."}, "[4]": {"assay": "Pharmacokinetics and metabolism in rat plasma after a single intravenous or oral dose (HPLC)", "type": "in vivo", "method": "Female Wistar (155–165 g) rats were purchased from Charles River UK Ltd (Margate, Kent, UK) and housed in a dedicated animal facility. Rats received RM1 rodent maintenance diet (SDS, Kent, UK), water ad libitum, and were maintained in positive pressure isolators under a 12 h light–dark cycle. These experiments were carried out under conditions that complied with institutional requirements. Rats received 2-MeOE2 or 2-MeOE2bisMATE (10 mg kg^−1, oral or intravenous), with control animals receiving vehicle only (propylene glycol: THF, 9 : 1 v v^−1). There were two reasons for selecting 10 mg kg^−1 for both oral and intravenous dosing. […] Rats were subjected to terminal anaesthesia (Halothane) and blood removed by cardiac puncture at 5, 15 and 30 min and 1, 3, 8 and 24 h after intravenous administration, and 15 and 30 min and 1, 3, 8, 24 and 48h following oral administration of 2-MeOE2 or 2-MeOE2bisMATE. Plasma was prepared from whole blood by centrifugation (2800 g, 4°C, 15 min). Plasma (0.5 ml) was extracted with diethyl ether (4 ml) and frozen in a methanol : solid carbon dioxide mixture. 17α-Epitestosterone (28 μg ml^−1) was used as an internal standard after purification by HPLC. The organic phase was decanted to a fresh tube and evaporated to dryness under a stream of air at room temperature. The extraction efficiencies for 2-MeOE2 and 2-MeOE2bisMATE from plasma were 71±5 and 75±4% (n=6), respectively. The residues were stored at −20°C until analysis by HPLC.\n2-MeOE2bisMATE was separated from its putative metabolites, 2-MeOE2, 2-MeOE2-3MATE and 2-MeOE2-17MATE, using a modified version of a reversed-phase HPLC method described previously ([Hildago Aragones et al, 1996]). An Agilent 1100 (Cheshire, UK) autosampler, photodiode array detector and solvent delivery system were used. The agents were separated from endogenous plasma components by an isocratic mobile phase consisting of 58% methanol in 0.02 M ammonium sulphate. Sodium azide (1 mM) was added to the mobile phase in order to decrease microbial growth. Extracted samples were reconstituted in mobile phase and aliquots of 100 μl were injected on to a C3-phenyl column (250 × 5 mm, 5 μm) purchased from Phenomenex (Cheshire, UK). 2-Methoxyoestradiol-bis-sulphamate, 2-MeOE2 and their metabolites were analysed with a photodiode array detector with detection at 285 nm. The method was validated by spiking plasma with 2-MeOE2bisMATE (960 ng ml^−1). The inter-day and intra-day coefficients of variation were 8.2% (n=6) and 3.8% (n=6), respectively. Quantification was achieved by spiking plasma with 2-MeOE2bisMATE and the internal standard 17α-epitestosterone, extraction with diethyl ether and subsequent analysis by HPLC. […] The limits of detection (LODs) and quantification of 2-MeOE2bisMATE in plasma were 11 and 40 ng ml^−1, respectively.\nPharmacokinetic parameters were calculated using WinNonlin software (Pharsight Corporation, Mountview, CA, USA). The area under the curve (AUC) was calculated using the linear trapezoidal method, with extrapolation of the terminal phase to infinity. Other parameters calculated were: distribution and elimination rate constants (α and β); total body clearance (Cl)=dose/AUC; volume of distribution (Vd)=Cl/β; distribution half-life (t1/2α)=0.693/α; elimination half-life (t1/2β)=0.693/β; bioavailability (% F=(AUCoral/AUCi.v) × 100)."}, "[5]": {"tested_on": "MDA-MB-435 (ER−) human melanoma cells xenografts", "assay": "In vivo inhibition of tumour growth, MDA-MB-435 xenografts in nude mice", "parameters": "species or system mouse", "settings": "20 mg kg^−1 oral daily for 28 days; for effect on tumour growth / tumour volumes versus control: treatment and post-dosing periods", "method": "(§1) To compare the anticancer effects of 2-MeOE2 and 2-MeOE2bisMATE, xenografts derived from MDA-MB-435 (ER−) human melanoma cells were transplanted into female nude mice with eight mice per group. These studies were carried out by Anti-Cancer Inc. (San Diego, CA, USA). Treatment was initiated when tumour volumes reached 100–200 mm^3. Drugs were dissolved in a minimum volume of THF, diluted with propylene glycol and administered at 20 mg kg^−1, oral, daily for 28 days. The length (l) and width (w) of tumours was measured at weekly intervals, from which the tumour volumes were calculated using the formula (l × w^2/2). Monitoring of tumour volumes continued for a further 28-day period after the end of drug administration. The body masses of control and treated animals were also measured at weekly intervals as an indicator of any toxicity that might be associated with the use of these drugs.\nStudent's t-test was used to assess the significance of differences in tumour volumes between control and treated animals."}, "[6]": {"assay": "Body masses of xenograft-bearing mice as an indicator of toxicity", "type": "in vivo, mouse", "settings": "nude mice, 20 mg kg^−1 oral daily for 28 days", "method": "as §1"}, "[7]": {"tested_on": "human umbilical vein endothelial cell (HUVEC)", "parameters": "method as in Newman et al, 2004", "settings": "in vitro; ref Newman et al, 2004; cited from earlier work"}, "[8]": {"settings": "female, Wistar, in vivo, iv, 10 mg/kg"}, "[9]": {"settings": "female, Wistar, in vivo, po, 10 mg/kg"}},
  "note": "Entries after “also recorded” stand apart in the source; their conditions may differ. Read-outs that look alike come from different tables or passages of the source.",
  "data": [
    {"molecule": "C[C@]12CC[C@@H]3c4ccc(OS(N)(=O)=O)cc4CC[C@H]3[C@@H]1CCC2=O", "note": "[EMATE, oestrone-3-O-sulphamate]", "values": [
      {"measurement": "half-life in plasma", "setting": "[1]", "value": 4.5, "unit": "h"},
      {"measurement": "inhibition of rat liver sulphatase", "setting": "[2]", "value": "at least 99%"}
    ]},
    {"molecule": "COc1cc2c(cc1O)CC[C@@H]1[C@@H]2CC[C@]2(C)[C@@H](O)CC[C@@H]12", "note": "[2-MeOE2, 2-Methoxyoestradiol]", "values": [
      {"measurement": "inhibition of hepatic sulphatase activity compared with control animals", "setting": "[3]; rat liver, single oral or intravenous dose 10 mg kg^−1", "value": "did not affect"},
      {"measurement": "% F (bioavailability)", "setting": "[4]; 10 mg kg^−1, (AUCoral/AUCi.v) × 100", "value": "very low"},
      {"measurement": "plasma concentration", "setting": "[4]; 1 h after 10 mg kg^−1 intravenous bolus, LOD 11 ng ml^−1", "value": "below the LOD"},
      {"measurement": "level in plasma as putative metabolite of 2-MeOE2bisMATE", "setting": "[4]; after oral or intravenous 2-MeOE2bisMATE 10 mg kg^−1", "value": "not above the LOD"},
      {"measurement": "concentration at 1 h", "setting": "[4]; female, Wistar, plasma, iv, 10 mg kg^−1, rat, 1 h after 10 mg kg^−1 intravenous bolus, LOD 11 ng ml^−1", "value": "< 11", "unit": "ng/mL"},
      {"measurement": "half-life", "setting": "[4]; female, Wistar, plasma, iv, 10 mg kg^−1, rat, after intravenous administration, read-out: half-life in plasma", "value": "~0.233", "unit": "h"},
      {"measurement": "effect on tumour growth / tumour volumes versus control", "setting": "[5]", "value": "did not inhibit tumour growth; also recorded: no significant effect"},
      {"measurement": "body weights", "setting": "[6]", "value": "No decreases"}
    ]},
    {"molecule": "COc1cc2c(cc1OS(N)(=O)=O)CCC1C2CC[C@]2(C)C(OS(N)(=O)=O)CCC12", "note": "(stereo partly drawn) [2-MeOE2bisMATE, 2-methoxyoestradiol-bis-sulphamate]", "values": [
      {"measurement": "potency relative to 2-MeOE2 in HUVEC growth inhibition", "setting": "[7]", "value": 60, "unit": "fold"},
      {"measurement": "time for which inhibition of sulphatase activity was maintained", "setting": "[3]; rat liver, after single dose", "value": 48, "unit": "h"},
      {"measurement": "inhibition of steroid sulphatase activity", "setting": "[3]; rat liver, within 5 min of intravenous dosing", "value": "> 99", "unit": "%"},
      {"measurement": "inhibition of steroid sulphatase activity", "setting": "[3]; rat liver, within 15 min of oral dosing", "value": "> 99", "unit": "%"},
      {"measurement": "inhibition at 10 mg/kg", "setting": "[3]; rat, read-out: inhibition of hepatic sulphatase activity compared with control animals", "value": "99.5 ± 0.5", "unit": "%"},
      {"measurement": "plasma concentrations detected", "setting": "[4]; female, Wistar, in vivo", "value": "up to 5 μM"},
      {"measurement": "bioavailability", "setting": "[4]; female, Wistar, in vivo, 10 mg/kg, % F (bioavailability)", "value": 85, "unit": "%"},
      {"measurement": "AUC", "setting": "[4]; [8]", "value": "514 ± 154", "unit": "µg·h/mL"},
      {"measurement": "Cmax", "setting": "[4]; [8]", "value": "6550 ± 920", "unit": "ng/mL"},
      {"measurement": "Vd", "setting": "[4]; [8]", "value": "0.28 ± 0.09", "unit": "L"},
      {"measurement": "clearance", "setting": "[4]; [8]", "value": 0.833, "unit": "mL/min"},
      {"measurement": "half-life", "setting": "[4]; female, Wistar, in vivo, iv, 10 mg/kg, t1/2α (distribution half-life)", "value": "0.22 ± 0.1", "unit": "h"},
      {"measurement": "half-life", "setting": "[4]; female, Wistar, in vivo, iv, 10 mg/kg, t1/2β (terminal half-life)", "value": "8.5 ± 1.16", "unit": "h"},
      {"measurement": "time for which compound was detectable in plasma", "setting": "[4]; female, Wistar, in vivo, po", "value": "at least 24 h"},
      {"measurement": "AUC", "setting": "[4]; [9]", "value": "389 ± 28.8", "unit": "µg·h/mL"},
      {"measurement": "Cl", "setting": "[4]; [9]", "value": "0.036 ± 0.001", "unit": "L/h"},
      {"measurement": "Cmax", "setting": "[4]; [9]", "value": "3900 ± 250", "unit": "ng/mL"},
      {"measurement": "Vd", "setting": "[4]; [9]", "value": "0.35 ± 0.02", "unit": "L"},
      {"measurement": "half-life", "setting": "[4]; female, Wistar, in vivo, po, 10 mg/kg, t1/2β (terminal plasma half-life)", "value": "6.51 ± 1.09", "unit": "h"},
      {"measurement": "plasma concentration", "setting": "[4]; female, Wistar, in vivo, po, 24 h", "value": 450, "unit": "ng/mL"},
      {"measurement": "effect on tumour growth / tumour volumes versus control", "setting": "[5]", "value": "almost completely inhibited tumour growth; also recorded: significantly smaller"},
      {"measurement": "mean tumour volume as % of tumour volume in control animals", "setting": "[5]; at 4 weeks, end of dosing", "value": 14, "unit": "%"},
      {"measurement": "difference in tumour volumes versus control group", "setting": "[5]; maintained for a further 4 weeks after cessation", "value": 86, "unit": "%"}
    ]}
  ]
}
